The target of assay [1] is T1, Calpain-2 catalytic subunit (Sus scrofa, UniProt P43367).
T1 sequence (P43367 whole entry): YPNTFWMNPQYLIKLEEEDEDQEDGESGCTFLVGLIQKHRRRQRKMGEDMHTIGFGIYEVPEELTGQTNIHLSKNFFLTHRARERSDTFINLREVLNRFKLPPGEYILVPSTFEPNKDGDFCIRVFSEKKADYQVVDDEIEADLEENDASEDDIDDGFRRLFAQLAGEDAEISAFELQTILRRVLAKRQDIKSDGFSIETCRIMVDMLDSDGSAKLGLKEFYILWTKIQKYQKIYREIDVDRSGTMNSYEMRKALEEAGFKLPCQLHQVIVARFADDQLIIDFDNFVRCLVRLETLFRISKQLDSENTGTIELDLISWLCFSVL
Kind of assay: pig calpain II inhibitor potency, dose response, biochemical, fluorogenic peptide substrate (AID 1420). The format is functional.

Another assay has as its system H9c2. Kind of assay: cells. Format: functional, cell-based. As to conditions: Rattus norvegicus, H9c2, Myocardium.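 Further: confirmatory concentration-response retest of ultra-high-throughput screening hits for modulation of myocardial damage; cell death induced by hydrogen peroxide oxidative stress; compound pretreatment for 60 min then peroxide exposure for 2 h; potency is for protecting the cells against peroxide damage rather than for killing them.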
The test system of another assay is Streptococcus. Kind of assay: Group A Streptococcus viability loss, dose response, counter-screen for streptokinase expression inhibitor project, luminescence, BacTiterGlo (AID 1915).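 Further: potency for reduction of bacterial viability or growth.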 The format is functional, organism-based.
The next assay has as its target T2, Streptokinase A (Streptococcus pyogenes serotype M1, UniProt P10520).
T2 sequence (P10520 whole entry): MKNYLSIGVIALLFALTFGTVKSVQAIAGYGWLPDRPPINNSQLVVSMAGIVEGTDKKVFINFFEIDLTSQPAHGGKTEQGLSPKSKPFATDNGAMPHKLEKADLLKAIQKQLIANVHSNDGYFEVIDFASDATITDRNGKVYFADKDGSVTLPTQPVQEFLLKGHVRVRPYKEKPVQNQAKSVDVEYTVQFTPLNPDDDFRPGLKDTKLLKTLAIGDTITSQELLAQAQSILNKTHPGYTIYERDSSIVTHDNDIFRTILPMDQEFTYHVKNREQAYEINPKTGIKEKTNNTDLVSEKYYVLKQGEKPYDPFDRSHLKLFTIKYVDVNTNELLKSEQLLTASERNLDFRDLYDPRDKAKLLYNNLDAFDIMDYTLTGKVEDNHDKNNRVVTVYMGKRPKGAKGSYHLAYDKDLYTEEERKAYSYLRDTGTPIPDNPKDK
Kind of assay: S. pyogenes streptokinase expression inhibitors, potency, dose response, plasminogen activation absorbance, OD405 (AID 1914).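 Further: secreted streptokinase activity via plasminogen activation per viability signal from cell pellet.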 The format is functional, Streptococcus pyogenes M1 GAS.

For assay [2], the system named is Streptococcus sp. 'group A'. Kind of assay: growth inhibition of control SK(-) GAS strain, dose response, counter-screen for streptokinase expression inhibitor project, luminescence, kanamycin, BacTiterGlo, confirmation (AID 1900). Format: functional, organism-based.
Assay [3] in a line: Luminescence Cell-Based Dose Response HTS to Identify Inhibitors of 5'UTR Stem-Loop Driven Prion Protein mRNA Translation in H4 Neuroglioblastoma Cells. [Related pubchem assays: 1827 (Project Summary), 1813 (Primary HTS)]. Format: functional.
Assay [4] is described as follows: inhibitors of SNCA 5'UTR-driven reporter translation, confirmation, H4 neuroglioma cells, luminescence (AID 1988). The format is functional, cell-based.
The nature of assay [5]: inhibitors of firefly luciferase expression or activity, dose response, H4 neuroglioma cells, luminescence (AID 1990). The format is functional, cell-based.
Assay [6] in a line: HEp-2 cell cytotoxicity, dose response, cytotoxicity control for RSV inhibitor project, HTS (AID 2410). The format is functional. As to conditions: human respiratory syncytial virus.
The target of assay [7] is T3, Corticotropin-releasing factor receptor 2/Corticotropin-releasing factor-binding protein (Homo sapiens, UniProt P24387+Q13324).
T3 sequence (Q13324 whole entry): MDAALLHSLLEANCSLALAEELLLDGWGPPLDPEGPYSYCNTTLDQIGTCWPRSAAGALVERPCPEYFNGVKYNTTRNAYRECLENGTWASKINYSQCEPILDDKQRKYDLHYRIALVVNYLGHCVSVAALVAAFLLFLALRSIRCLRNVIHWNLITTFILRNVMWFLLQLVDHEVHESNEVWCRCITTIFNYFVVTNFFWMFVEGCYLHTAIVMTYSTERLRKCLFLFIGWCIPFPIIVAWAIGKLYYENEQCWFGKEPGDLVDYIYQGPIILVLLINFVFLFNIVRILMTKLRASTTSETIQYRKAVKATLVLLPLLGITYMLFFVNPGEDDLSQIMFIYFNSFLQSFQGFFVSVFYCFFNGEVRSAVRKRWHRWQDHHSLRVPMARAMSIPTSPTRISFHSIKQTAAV
T3 sequence (P24387 whole entry): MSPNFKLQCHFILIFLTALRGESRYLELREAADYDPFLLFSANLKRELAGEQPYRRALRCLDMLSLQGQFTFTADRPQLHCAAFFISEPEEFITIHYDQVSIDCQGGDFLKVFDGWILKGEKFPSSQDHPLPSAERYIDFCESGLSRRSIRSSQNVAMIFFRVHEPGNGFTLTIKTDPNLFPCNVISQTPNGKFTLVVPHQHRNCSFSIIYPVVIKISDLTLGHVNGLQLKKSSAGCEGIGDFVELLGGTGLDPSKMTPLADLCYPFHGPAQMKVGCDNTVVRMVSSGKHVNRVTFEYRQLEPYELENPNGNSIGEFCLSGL
Kind of assay: Dose Response confirmation of uHTS hits for small molecule antagonists of the CRF-binding protein and CRF-R2 receptor complex. Format: functional. As to conditions: read-out: IC50_Mean.

Assay [8] addresses T3, Corticotropin-releasing factor receptor 2/Corticotropin-releasing factor-binding protein. Kind of assay: activators of CRF receptor 2 with binding protein – uHTS hits, confirmation (AID 602473). Format: functional. As to conditions: read-out: EC50_Mean.
For assay [9], the target named is T4, Heat shock factor protein 1 (Mus musculus, UniProt P38532).
T4 sequence (P38532 whole entry): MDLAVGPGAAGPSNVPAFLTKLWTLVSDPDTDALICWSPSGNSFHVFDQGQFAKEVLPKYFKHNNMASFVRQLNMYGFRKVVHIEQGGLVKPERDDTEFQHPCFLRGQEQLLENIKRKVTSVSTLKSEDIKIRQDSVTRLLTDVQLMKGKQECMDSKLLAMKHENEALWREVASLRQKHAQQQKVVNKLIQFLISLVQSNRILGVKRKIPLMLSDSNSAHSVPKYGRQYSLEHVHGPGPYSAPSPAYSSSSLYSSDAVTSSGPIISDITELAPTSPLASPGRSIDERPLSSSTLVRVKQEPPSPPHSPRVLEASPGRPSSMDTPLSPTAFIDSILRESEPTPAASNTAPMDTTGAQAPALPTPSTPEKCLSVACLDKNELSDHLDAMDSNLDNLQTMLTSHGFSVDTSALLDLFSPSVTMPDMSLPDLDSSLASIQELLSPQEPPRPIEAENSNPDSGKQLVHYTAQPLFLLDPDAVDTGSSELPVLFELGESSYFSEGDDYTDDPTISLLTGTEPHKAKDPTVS
Kind of assay: inhibition of MG132-induced HSE-luciferase signal, confirmation, cell-based, NIH3T3, luminescence, dose retest (AID 2382).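 Further: NIH3T3 fibroblasts with HSF1-driven luciferase reporter stressed by proteasome inhibitor MG132; luminescence from HSF1-driven luciferase expression after 8 hours of MG132 stress.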 Format: functional.

Calls of active or inactive are those of the source. For most assays here, no stated cut-off is given here; in the data, actives have a measured EC50 and inactives only a lower limit.

Consider `COc1ccccc1NC(=O)/C(=C/c1cccs1)NC(=O)c1ccco1`, for which the IC50 in assay [1] was 26 µM (not active). The same measure, in the same setting: in the case of `COc1ccc(-c2nnc(SC(C)C(=O)Nc3cccc(Cl)c3)o2)cc1` (stereo not drawn) it was 11.7 µM (not active). Turning to `Fc1ccc(-c2ccc(-c3nn4c(-c5ccco5)nnc4s3)o2)cc1`, the IC50 with H9c2 is 36.1 µM (inactive). For the molecule `Cc1nn(Cc2ccc(Cl)cc2Cl)c(C)c1NC(=O)NC12CC3CC(CC(C3)C1)C2`, the EC50 in the assay on Streptococcus is 33.4 µM (active); at Streptokinase A, 32.7 µM (active); in [2] it was 7.54 µM (active).

In the case of `Cc1cccc(OCCNc2ccc([N+](=O)[O-])cn2)c1`, the IC50 in [1] is listed as > 50 µM (not active). On to `NC(=O)c1ccc(NC(=O)COC(=O)C2(c3ccccc3F)CCCC2)cc1`, for which the values for the EC50 in assay [3], in assay [4] and in [5] were > 120 µM (not active), 17.5 µM (active) and > 120 µM (not active), respectively. As for `CCCn1c(C2CCCN2c2nc(-c3cccc(Br)c3)cs2)nc2cc(Cl)c(Cl)cc21` (stereo not drawn), the EC50 in the assay on Streptococcus was 56.5 µM (active); on Streptokinase A, > 150 µM (not active); in assay [2] it was 2.99 µM (active). Turning to `Fc1cccc(Cl)c1CSc1ccc(-c2cccnc2)nn1`, the CC50 in [6] is > 50 µM (active). Further, in assay [1], the IC50 is recorded as 29.7 µM (not active). In the case of `Cc1ccc(S(=O)(=O)N2c3ccccc3OCC2C(C)(C)C)cc1` (stereo not drawn), the EC50 is > 150 µM (not active) in the assay on Streptococcus, 16.9 µM (active) at Streptokinase A, 16.4 µM (active) in [2] and > 53 µM (inactive) in [8]. The IC50 in assay [7] was > 47.1 µM (inactive). With `CCN1CCN(c2nc(O)c3c(n2)CCCC3)CC1`, the IC50 with H9c2 is > 79 µM (inactive). With `CC(C)N(Cc1nc(-c2ccccc2)no1)C(=O)CCCN1C(=O)c2ccccc2C1=O`, the IC50 in assay [1] is > 50 µM (not active). Same read-out and setting: in the case of `CC(=O)Nc1ccccc1C(=O)C(=O)Nc1cccc(C(=O)NCC2CCCO2)c1` (stereo not drawn) it was 7.39 µM (not active). Take `Cc1nc2c(C(=O)Nc3ccc(N4CCCC(O)C4)cc3)snc2c(=O)[nH]1` (stereo not drawn): the EC50 on Streptokinase A was > 150 µM (not active). In the case of `O=C(c1cc(COc2c(F)cccc2F)on1)N1CCC(c2ccccc2Cl)C1` (stereo not drawn), in [1], the IC50 was 4.48 µM (not active). As for `Cc1ccc(-n2c(SCC(=O)NCCC3=CCCCC3)nc3nnc(C)c-3c2N)cc1Cl`, the EC50 in [3] was 75.9 µM (active); in assay [4], > 120 µM (not active); in assay [5], 23 µM (active). In the case of `CCOc1ccc(CC(=O)Nc2c(C(N)=O)oc3ccc(Br)cc23)cc1OCC`, the IC50 in the assay with H9c2 is > 79 µM (inactive).

`O=c1c2ccccc2nc(-c2ccc(Cl)c(Cl)c2)n1O`: in the assay with H9c2, the IC50 is > 79 µM (inactive). With `CC(Sc1nnc(-c2ccc(O)cc2)o1)C(=O)Nc1cccc2ccccc12` (stereo not drawn), the IC50 in assay [1] was < 0.4 µM (not active). Same read-out and setting: the value for `Cc1ccc(C2CCN(C(S)=Nc3cccc(C)c3)C2)cc1` (stereo not drawn) was 9.72 µM (not active). In the case of `CCC(CC)C1=NN2C(=N)/C(=C\c3c(C)[nH]c4ccccc34)C(=O)N=C2S1`, the CC50 in assay [6] was 16.1 µM (active). Moreover, the EC50 in the assay on Streptococcus is 53 µM (active); on Streptokinase A, 18.9 µM (inconclusive); in assay [2], 5.71 µM (active). As for `OCc1cccc[n+]1CCc1ccccc1`, the EC50 was 48.4 µM (active) in assay [3], > 120 µM (not active) in assay [4] and > 120 µM (not active) in assay [5].

Consider `Cc1ccc(-c2nnc(NCc3nc4ccccc4[nH]3)c3ccccc23)cc1S(=O)(=O)N1CCOCC1`, for which the IC50 in the assay on H9c2 was > 79 µM (inactive). For the molecule `CCOC(=O)N1CCc2c(sc(NC(=O)CN3CCOCC3)c2C(=O)Nc2ccccc2)C1`, the IC50 with H9c2 was 22.8 µM (active).

Regarding `Cn1c(=O)n(C)c2cc([N+](=O)[O-])c(N3CCN(CCO)CC3)cc21`, the IC50 in assay [1] is recorded as 7.45 µM (not active).

Turning to `CCC(CO)Nc1ncnc2c1cnn2-c1ccc(OC)cc1` (stereo not drawn), the EC50 (in the assay on Streptococcus; at Streptokinase A; in assay [2]) was > 150 µM (not active) throughout.

Consider `COCCn1c(=O)c2c(nc3n2CC(C)CN3CCc2ccccc2)n(C)c1=O` (stereo not drawn), for which the EC50 in assay [3], in [4] and in assay [5] was > 120 µM (not active) throughout. In the case of `Cc1cccc(/C=C2\Sc3ccc(C(=O)N4CCC(C)CC4)cc3N(C)C2=O)c1`, the EC50 with Streptococcus is 7.54 µM (active); on Streptokinase A it was 20.3 µM (active); in assay [2], 3.11 µM (active). On to `CCOc1ccccc1Cn1c(=O)sc2ccccc21`, for which, in [1], the IC50 is listed as 13.1 µM (not active). As for `COc1cccc(C2CC(c3ccccc3OC)n3nc(N)nc3N2)c1` (stereo not drawn), the IC50 in assay [1] is on record as > 50 µM (not active).

Regarding `N#CCCN(C(=O)COC(=O)CCc1nc(O)c2ccccc2n1)c1ccc(F)cc1`, in the assay on H9c2, the IC50 is > 79 µM (inactive). On to `COc1ccc(OC)c(NC(=O)c2sc3ncnc(N4CCN(c5ccccn5)CC4)c3c2C)c1`, for which the IC50 in the assay on H9c2 was > 79 µM (inactive). Turning to `O=C(CN1C(=O)C2CC=CCC2C1=O)Nc1nc(-c2ccc(F)c(F)c2)cs1` (stereo not drawn), the IC50 with H9c2 is > 79 µM (inactive). On the same count and under the same terms, in the case of `CN(C)S(=O)(=O)n1cc(/C=C(\NC(=O)c2ccccc2F)C(=O)NCCN2CCOCC2)c2ccccc21` it was > 79 µM (inactive). As for `CC/N=C1\S/C(=C\c2ccc(-c3cccc(C(=O)O)c3)o2)C(=O)N1CC`, the EC50 in the assay on Streptococcus was 10.7 µM (active); at Streptokinase A, > 150 µM (not active); in [2] it was 3.4 µM (active); in assay [9], > 195 µM (not active). As to `COc1ccc(CC(=O)NCC(=O)N/N=C/c2cc(Br)ccc2OC)cc1`, the IC50 in the assay with H9c2 was 34.7 µM (inactive). Still for that read-out and setting: the value for `C/C(=N\O)[C@H]1CC[C@H]2[C@@H]3CC[C@H]4C/C(=N\O)CC[C@]4(C)[C@H]3C(C)(O)C[C@]12C` (stereo partly drawn) was > 79 µM (inactive).

These data come from ChEMBL document CHEMBL1201862, “PubChem BioAssay data set” (2004).
